From patent US20160192643A1, “NEW ANTIFUNGAL COMPOSITION FOR TREATMENT OF SOIL” (CERADIS B.V., priority 2013, published 2016)

Legend:
[1] = neutral aqueous systems; cited from earlier work
Pythium aphanidermatum = assay: Polyelectrolyte formulation against Pythium aphanidermatum in Chrysanthemum soil
Experimental: Soil was artificially infected with Pythium aphanidermatum spores using well known methods. Crates of 40×60 cm each were filled with infected soil. Transplants of Chrysanthemum were planted after the artificial infection. Each plot consisted of 2 crates with each 15 plants (30 plants per plot). The trial was conducted in four replicates. A single application was done just after transplant by spraying the AllyloCal polyelectrolyte complex over the crop at 1000 l/ha. Immediately after the treatment, the products were rinsed in the soil with 3 liter of water per m^2. The applied concentration in the spray suspension was 1000 ppm of natamycin. After 10 days the numbers of healthy, diseased and dead plants were counted.
At the end of the trial, after 44 days, the average plant height, the average plant weight and the rooting (in percentage of the bottom of the crates covered with roots) were measured.

most fungi = details: cited from earlier work
Agaricus bisporus = assay: Polyelectrolyte formulation applied on mushroom growth substrate: total yield of mushrooms; type: in vivo; details: natamycin 500 ppm where present
Experimental: Naturally contaminated Phase III compost inoculated with mushroom spawn of the edible mushroom species Agaricus bisporus prepared using well known methods was obtained from a local Dutch grower
Formulations described in Table 3 were generated as described in Example 1 for CitoCal.
Boxes with a size of 30 (1)×25 (b)×10 (h) cm were filled with the Phase III compost and incubated for 4 days at a temperature of 21° C. in the dark. After this incubation period, the white mushroom mycelium was visible on the surface of the compost. The compost was covered with 3 cm of casing prepared using well known methods after which 30 ml of the different formulations was sprayed onto the casing. Each formulation was examined in duplicate. The next day, 200 ml of water was added to each box after which the boxes were incubated for 7 days at 21° C. in the dark allowing the mycelium to grow to the surface of the casing. After this period the white mushroom mycelium was visible at the surface of the casing. The boxes were further incubated in the dark at a temperature of 18° C.
Dehydration of the casing surface was prevented by spraying sufficient and equal amounts of water (circa 10 ml) onto the casing in each box every few days using well known methods. […] During a period of 46 days mushrooms were harvested every day; the total yield was determined by measuring the weight of the mushrooms.

[2] = 10 days after infection, n = 120, single spray at 1000 l/ha, 1000 ppm natamycin
[3] = compared with the untreated plants (n = 120), after 44 days
[4] = end of the trial, after 44 days

SMILES: C[C@@H]1C/C=C/C=C/C=C/C=C/[C@H](O[C@@H]2O[C@H](C)[C@@H](O)[C@H](N)[C@@H]2O)C[C@@H]2O[C@](O)(C[C@@H](O)C[C@H]3O[C@@H]3/C=C/C(=O)O1)C[C@H](O)[C@H]2C(=O)O [Natamycin, natamycin]
- solubility [1]: 30-40 ppm
- Dead plants (%) (Pythium aphanidermatum; [2]): 6%
- Diseased plants (%) (Pythium aphanidermatum; [2]): 34%
- Healthy plants (%) (Pythium aphanidermatum; [2]): 60%
- Percentage improvement of plant height (%) (Pythium aphanidermatum; [3]): 5.5%
- Percentage improvement of plant rooting (%) (Pythium aphanidermatum; [3]): 2.3%
- Percentage improvement of plant weight (%) (Pythium aphanidermatum; [3]): 3.9%
- average plant height (Pythium aphanidermatum; [4]): 59.9 cm
- average plant weight (Pythium aphanidermatum; [4]): 43.1 grams
- Minimal Inhibitory Concentration (MIC) (most fungi): less than 10 ppm
- Total yield (gram/2 boxes) (Agaricus bisporus; total mushroom weight after 46 days of incubation, 30 ml formulation sprayed onto casing, naturally contaminated Phase III compost): 359 gram/2 boxes
- Yield increase (%) (Agaricus bisporus; versus Control, 46 days of incubation): −1.4%
